# Several values for one entry are separate records, joined by “and”; a condition that tells them apart may be missing. Equal entries are not always repeated. Structures can show the parent of a compound that is named as a salt. Where two headings read alike, the source gives them in different places.
# Tests used:
# [1] = molecular target: T1, β2 (Homo sapiens, UniProt P07550); test: Adrenergic β2 mediated cAMP production in H292 cells (AlphaScreen); format: cell-based; conditions: Intrinsic Activity as a fraction relative to the maximum activity of formoterol
# T1 construct: endogenous in cells; host or cells: H292 cells
# T1 sequence (P07550 whole entry): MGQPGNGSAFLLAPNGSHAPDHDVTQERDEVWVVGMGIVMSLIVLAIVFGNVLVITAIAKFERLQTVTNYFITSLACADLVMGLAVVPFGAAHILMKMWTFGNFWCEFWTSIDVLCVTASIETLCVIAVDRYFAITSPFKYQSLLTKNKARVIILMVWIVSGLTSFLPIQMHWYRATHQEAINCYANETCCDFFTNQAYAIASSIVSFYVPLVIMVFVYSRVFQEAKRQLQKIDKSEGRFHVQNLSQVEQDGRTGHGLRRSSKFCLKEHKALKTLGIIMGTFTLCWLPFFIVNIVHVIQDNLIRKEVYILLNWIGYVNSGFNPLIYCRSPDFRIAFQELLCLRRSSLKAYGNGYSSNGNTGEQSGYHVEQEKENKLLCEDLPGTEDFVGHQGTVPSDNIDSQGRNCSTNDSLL
# Procedure: H292 cells were grown in 225 cm2 flasks incubator at 37° C., 5% CO2 in RPMI medium containing, 10% (v/v) FBS (foetal bovine serum) and 2 mM L-glutamine.
# Adherent H292 cells were removed from tissue culture flasks by treatment with Accutase™ cell detachment solution for 15 minutes. Flasks were incubated for 15 minutes in a humidified incubator at 37° C., 5% CO2. Detached cells were re-suspended in RPMI media (containing 10% (v/v) FBS and 2 mM L-glutamine) at 0.05×10^6 cells per mL. 5000 cells in 100 μL were added to each well of a tissue-culture-treated 96-well plate and the cells incubated overnight in a humidified incubator at 37° C., 5% CO2. The culture media was removed and cells were washed twice with 100 μL assay buffer and replaced with 50 μL assay buffer (HBSS solution containing 10 mM HEPES pH7.4 and 5 mM glucose). Cells were rested at room temperature for 20 minutes after which time 25 μL of rolipram (1.2 mM made up in assay buffer containing 2.4% (v/v) dimethylsulphoxide) was added. Cells were incubated with rolipram for 10 minutes after which time Compound A was added and the cells were incubated for 60 minutes at room temperature. The final rolipram concentration in the assay was 300 μM and final vehicle concentration was 1.6% (v/v) dimethylsulphoxide. The reaction was stopped by removing supernatants, washing once with 100 μL assay buffer and replacing with 50 μL lysis buffer. The cell monolayer was frozen at −80° C. for 30 minutes (or overnight).
# The concentration of cAMP (cyclic adenosine monophosphate) in the cell lysate was determined using AlphaScreen™ methodology. […] The AlphaScreen™ signal was measured using an EnVision spectrophotometer (Perkin-Elmer Inc.) with the recommended manufacturer's settings. cAMP concentrations were determined by reference to a calibration curve determined in the same experiment using standard cAMP concentrations. […] Intrinsic Activity was expressed as a fraction relative to the maximum activity determined for formoterol in each experiment.
# [2] = test system: guinea pig trachea; test: Bronchodilator activity in the guinea pig isolated tracheal ring preparation; conditions: methacholine 1 μM, 60 min, mean±s.e.mean
# Procedure: Guinea pigs (300-500 g) were killed by cervical dislocation and the trachea was isolated. The trachea was cut into segments 2-3 cartilage rings in width and suspended in 10 ml organ baths in modified Krebs' solution (mM; NaCl, 90; NaHCO3, 45; KCl, 5; MgSO4.7H2O, 0.5; Na2HPO4.2H2O, 1; CaCl2, 2.25; glucose, 10; pH 7.4 gassed with 5% CO2, 95% O2 at 37° C.). The tracheal rings were attached to an isometric force transducer for the measurement of isometric tension. The tissues were washed and a force of 1 g was applied to each tissue. The rings were contracted with methacholine (1 μM). Once the contraction had reached a plateau, vehicle (0.01% DMSO in distilled H2O), indacaterol (10 nM), N-[2-(Diethylamino)ethyl]-N-(2-{[2-(4-hydroxy-2-oxo-2,3-dihydro-1,3-benzothiazol-7-yl)ethyl]amino}ethyl)-3-[2-(1-naphthyl)ethoxy]propanamide dihydrobromide (10 nM), N-Cyclohexyl-N^3-[2-(3-fluorophenyl)ethyl]-N-(2-{[2-(4-hydroxy-2-oxo-2,3-dihydro-1,3-benzothiazol-7-yl)ethyl]amino}ethyl)-(3-alaninamide di-D-mandelate salt (1 nM), (R)-3-(1-Phenyl-cycloheptanecarbonyloxy)-1-(pyridin-2-ylcarbamoylmethyl)-1-azonia-bicyclo[2.2.2]octane bromide (1 nM), a combination of (R)-3-(1-Phenyl-cycloheptanecarbonyloxy)-1-(pyridin-2-ylcarbamoylmethyl)-1-azonia-bicyclo[2.2.2]octane bromide (1 nM) and indacaterol (10 nM), a combination of N-[2-(Diethylamino)ethyl]-N-(2-{[2-(4-hydroxy-2-oxo-2,3-dihydro-1,3-benzothiazol-7-yl)ethyl]amino}ethyl)-3-[2-(1-naphthyl)ethoxy]propanamide dihydrobromide (10 nM) and (R)-3-(1-Phenyl-cycloheptanecarbonyloxy)-1-(pyridin-2-ylcarbamoylmethyl)-1-azonia-bicyclo[2.2.2]octane bromide (1 nM) and, or a combination of N-Cyclohexyl-N^3-[2-(3-fluorophenyl)ethyl]-N-(2-{[2-(4-hydroxy-2-oxo-2,3-dihydro-1,3-benzothiazol-7-yl)ethyl]amino}ethyl)-β-alaninamide di-D-mandelate salt (1 nM) and (R)-3-(1-Phenyl-cycloheptanecarbonyloxy)-1-(pyridin-2-ylcarbamoylmethyl)-1-azonia-bicyclo[2.2.2]octane bromide (1 nM) was added and the tissue left for 60 min. The tension was measured in each ring at 60 min following compound addition and was expressed as a % relaxation of the constriction to methacholine (1 μM) (mean±s.e.mean). Data were collected using the Chart 4 software (ADInstruments, Charlgrove, UK).
# [3] = molecular target: T2, human muscarinic receptors (M3) (Homo sapiens, UniProt P20309); test: Muscarinic Receptor Radioligand Binding Assay ([3H]-NMS); conditions: human M3 membranes
# T2 construct: purchased
# T2 sequence (P20309 whole entry): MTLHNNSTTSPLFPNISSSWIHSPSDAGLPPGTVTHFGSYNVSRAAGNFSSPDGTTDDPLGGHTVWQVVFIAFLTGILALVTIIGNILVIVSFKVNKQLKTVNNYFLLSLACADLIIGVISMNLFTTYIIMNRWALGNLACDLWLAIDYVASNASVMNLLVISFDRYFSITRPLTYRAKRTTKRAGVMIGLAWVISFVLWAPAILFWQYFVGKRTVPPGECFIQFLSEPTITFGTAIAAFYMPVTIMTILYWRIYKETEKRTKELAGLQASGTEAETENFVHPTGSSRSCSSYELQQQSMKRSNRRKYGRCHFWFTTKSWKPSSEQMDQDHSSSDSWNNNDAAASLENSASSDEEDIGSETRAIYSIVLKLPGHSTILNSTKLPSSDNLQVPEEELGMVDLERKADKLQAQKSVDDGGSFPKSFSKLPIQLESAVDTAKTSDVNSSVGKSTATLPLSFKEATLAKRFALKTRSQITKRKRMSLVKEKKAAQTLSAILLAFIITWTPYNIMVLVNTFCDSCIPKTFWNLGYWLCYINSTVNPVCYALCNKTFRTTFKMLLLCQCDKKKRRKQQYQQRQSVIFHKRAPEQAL
# Procedure: The inhibitory effects of compounds of the muscarinic antagonists were determined by a Muscarinic Receptor Radioligand Binding Assay. Radioligand binding studies utilising [^3H]-N-methyl scopolamine ([^3H]-NMS) and commercially available cell membranes expressing the human muscarinic receptors (M2 or M3) were used to assess the affinity of muscarinic antagonists for M2 and M3 receptors. Membranes in TRIS buffer were incubated in 96-well plates with [^3H]-NMS and M3 antagonist at various concentrations for 3 hours. Membranes and bound radioligand were then harvested by filtration and allowed to dry overnight. Scintillation fluid was then added and the bound radioligand counted using a Can berra Packard Topcount scintillation counter
# [4] = Gravimetric Vapour Sorption (GVS); format: physicochemical; conditions: at 80% RH
# Procedure: Gravimetric Vapour Sorption (GVS) profiles were measured using a Surface Measurements Systems Dynamic Vapour Sorption DVS-1, or DVS Advantage GVS instruments. The solid sample ca. 1-5 mg was placed into a glass or wire mesh vessel and the weight of the sample was recorded during a dual cycle step method (40 to 90 to 0 to 90 to 0% relative humidity (RH), in steps of 10% RH).
compound,measurement,setting,value
"CCN(CC)CCN(CCNCCc1ccc(O)c2[nH]c(=O)sc12)C(=O)CCOCCc1cccc(Cl)c1 [BA2, N-[2-(Diethylamino)ethyl]-N-(2-{[2-(4-hydroxy-2-oxo-2,3-dihydro-1,3-benzothiazol-7-yl)ethyl]amino}ethyl)-3-[2-(3-chlorophenyl)ethoxy]propanamide dihydrobromide]",β2 Int Act,[1],0.7
"CCc1cc2c(cc1CC)CC(NC[C@H](O)c1ccc(O)c3[nH]c(=O)ccc13)C2 [indacaterol, reference compound]",percentage relaxation of the constriction to methacholine,[2]; 10 nM,24±6.9%
"CCN(CC)CCN(CCNCCc1ccc(O)c2[nH]c(=O)sc12)C(=O)CCOCCc1cccc2ccccc12 [BA1, N-[2-(Diethylamino)ethyl]-N-(2-{[2-(4-hydroxy-2-oxo-2,3-dihydro-1,3-benzothiazol-7-yl)ethyl]amino}ethyl)-3-[2-(1-naphthyl)ethoxy]propanamide dihydrobromide]",β2 Int Act,[1],0.8
same,percentage relaxation of the constriction to methacholine,[2]; 10 nM,18±11.2%
"N-Cyclohexyl-N^3-[2-(3-fluorophenyl)ethyl]-N-(2-{[2-(4-hydroxy-2-oxo-2,3-dihydro-1,3-benzothiazol-7-yl)ethyl]amino}ethyl)-β-alaninamide di-D-mandelate [compound W]",percentage relaxation of the constriction to methacholine,[2]; 1 nM,23±10%
"O=c1[nH]c2c(O)ccc([C@@H](O)CNCCSCCCNCCc3ccccc3Cl)c2s1 [BA3, 7-[(1R)-2-({2-[(3-{[2-(2-Chlorophenyl)ethyl]amino}propyl)thio]ethyl}amino)-1-hydroxyethyl]-4-hydroxy-1,3-benzothiazol-2(3H)-one dihydrobromide]",β2 Int Act,[1],0.8
"O=C(C[N+]12CCC(CC1)[C@@H](OC(=O)C1(c3ccccc3)CCCCCC1)C2)Nc1cnccn1.[Br-] [Example 1, (R)-3-(1-Phenyl-cycloheptanecarbonyloxy)-1-(pyrazin-2-ylcarbamoylmethyl)-1-azonia-bicyclo[2.2.2]octane bromide]",IC50,[3]; read-out: M3 pIC50 (converted),0.0794 nM
same,GVS weight increase,[4],3 % w/w
"O=C(C[N+]12CCC(CC1)[C@@H](OC(=O)C1(c3ccccc3)CCCCCC1)C2)Nc1ccccn1.[Cl-] [Example 3, (R)-3-(1-Phenyl-cycloheptanecarbonyloxy)-1-(pyridin-2-ylcarbamoylmethyl)-1-azonia-bicyclo[2.2.2]octane chloride]",IC50,"[3]; class symbols of M3 Binding IC50, read-out: M3 pIC50 (converted)",< 2 nM
same,GVS weight increase,[4],negligible
"O=C(C[N+]12CCC(CC1)[C@@H](OC(=O)C1(c3ccccc3)CCCCCC1)C2)Nc1ccccn1.[Br-] [Example 4, (R)-3-(1-Phenyl-cycloheptanecarbonyloxy)-1-(pyridin-2-ylcarbamoylmethyl)-1-azonia-bicyclo[2.2.2]octane bromide]",percentage relaxation of the constriction to methacholine,"[2]; 1 nM, listed as Compound Z",9±9.4%
same,percentage relaxation of the constriction to methacholine,"[2]; 1 nM, listed as compound Z",9±4.3% and 5±1.8%
same,GVS weight increase,[4],negligible
